Holding throughout (experiment): Kinase panel (mobility shift)
Type in all cases: biochemical

One experiment has as its target EPH-A4 (Homo sapiens, UniProt P54764). An outline of the steps: (§1)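 Compound at 5 um + kinase + fluor-labeled substrate, standardized mix; rxn stopped; electrophoretic separation of product/substrate on chip; activity = product vs substrate peak fluorescence. Bins A ≥95%, B 90-94%, C 80-89%.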
The target in the next experiment is T1, MUSK (Homo sapiens, UniProt O15146).
T1 sequence (O15146 24-869): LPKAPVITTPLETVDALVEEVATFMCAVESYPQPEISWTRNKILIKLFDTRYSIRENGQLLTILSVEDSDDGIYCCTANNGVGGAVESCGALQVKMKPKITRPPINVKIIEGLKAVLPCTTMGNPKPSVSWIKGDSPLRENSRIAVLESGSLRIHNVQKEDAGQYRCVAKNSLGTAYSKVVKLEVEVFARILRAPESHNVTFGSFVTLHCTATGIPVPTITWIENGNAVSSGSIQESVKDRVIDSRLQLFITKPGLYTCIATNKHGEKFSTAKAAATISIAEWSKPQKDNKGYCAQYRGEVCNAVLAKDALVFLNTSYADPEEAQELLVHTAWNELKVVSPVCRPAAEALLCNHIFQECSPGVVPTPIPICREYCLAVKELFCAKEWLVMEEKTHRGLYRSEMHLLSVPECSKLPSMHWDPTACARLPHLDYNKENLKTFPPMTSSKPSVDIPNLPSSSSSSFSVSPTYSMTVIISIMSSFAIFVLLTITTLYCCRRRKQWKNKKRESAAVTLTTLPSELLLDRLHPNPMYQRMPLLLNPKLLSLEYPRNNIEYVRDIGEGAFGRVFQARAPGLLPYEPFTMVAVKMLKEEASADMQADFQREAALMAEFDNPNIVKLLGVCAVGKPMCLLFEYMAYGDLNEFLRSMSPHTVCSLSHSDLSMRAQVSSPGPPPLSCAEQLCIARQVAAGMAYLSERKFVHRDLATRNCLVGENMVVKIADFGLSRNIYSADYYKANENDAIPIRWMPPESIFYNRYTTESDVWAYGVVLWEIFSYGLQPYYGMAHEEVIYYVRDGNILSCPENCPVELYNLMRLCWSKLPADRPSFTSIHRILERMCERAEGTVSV
An outline of the steps: as §1

The target in a further experiment is P38-b (Homo sapiens, UniProt Q15759). An outline of the steps: as §1
The next experiment has as its target T2, TYRO3 (Homo sapiens, UniProt Q06418).
T2 sequence (Q06418 41-890): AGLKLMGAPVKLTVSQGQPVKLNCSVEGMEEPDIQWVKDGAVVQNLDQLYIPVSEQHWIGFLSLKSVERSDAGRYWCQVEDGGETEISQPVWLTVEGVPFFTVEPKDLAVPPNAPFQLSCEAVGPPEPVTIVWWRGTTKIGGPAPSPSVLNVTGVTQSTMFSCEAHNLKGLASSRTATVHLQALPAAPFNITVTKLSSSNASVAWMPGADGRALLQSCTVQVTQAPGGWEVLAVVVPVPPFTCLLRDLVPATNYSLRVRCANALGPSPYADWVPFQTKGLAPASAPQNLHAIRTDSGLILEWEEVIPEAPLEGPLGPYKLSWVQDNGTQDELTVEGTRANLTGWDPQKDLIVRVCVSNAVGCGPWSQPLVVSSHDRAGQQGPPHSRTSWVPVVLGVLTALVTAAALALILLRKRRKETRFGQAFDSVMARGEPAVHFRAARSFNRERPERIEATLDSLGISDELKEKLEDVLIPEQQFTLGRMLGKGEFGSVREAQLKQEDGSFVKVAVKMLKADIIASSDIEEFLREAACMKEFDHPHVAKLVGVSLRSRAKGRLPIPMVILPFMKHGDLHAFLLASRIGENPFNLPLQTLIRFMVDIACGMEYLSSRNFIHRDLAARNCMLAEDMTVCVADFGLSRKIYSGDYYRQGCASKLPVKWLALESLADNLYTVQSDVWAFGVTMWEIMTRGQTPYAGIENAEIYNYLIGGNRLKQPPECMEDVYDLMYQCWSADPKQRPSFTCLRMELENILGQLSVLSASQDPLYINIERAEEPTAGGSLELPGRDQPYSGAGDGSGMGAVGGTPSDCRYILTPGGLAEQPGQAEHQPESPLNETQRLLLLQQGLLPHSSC
The method, boiled down: as §1

In the next experiment the target is TIE2 (Homo sapiens, UniProt Q02763). The method, boiled down:
as §1

A further experiment deals with LOK (Homo sapiens, UniProt O94804). The note with it: at 5 um. The method, boiled down:
as §1

The target of the next experiment is KIT (Homo sapiens, UniProt P10721). An outline of the steps: as §1
Another experiment concerns the target PDGFR-b (Homo sapiens, UniProt P09619). The method, boiled down:
as §1

The target of another experiment is BRK (Homo sapiens, UniProt Q13882). The method, boiled down: as §1
A further experiment addresses PDGFR-a (Homo sapiens, UniProt P16234). The method, boiled down: as §1
A further experiment concerns the target P38-a (Homo sapiens, UniProt Q16539). The note with it: at 5 um. An outline of the steps: as §1
The target of a further experiment is HIPK3 (Homo sapiens, UniProt Q9H422). The method, boiled down:
as §1

In a further experiment the target is RIPK2 (Homo sapiens, UniProt O43353). An outline of the steps: as §1

Where only a bound is given, the exact number is not on record here.

Chain of KIT (P10721 26-976, species assumed): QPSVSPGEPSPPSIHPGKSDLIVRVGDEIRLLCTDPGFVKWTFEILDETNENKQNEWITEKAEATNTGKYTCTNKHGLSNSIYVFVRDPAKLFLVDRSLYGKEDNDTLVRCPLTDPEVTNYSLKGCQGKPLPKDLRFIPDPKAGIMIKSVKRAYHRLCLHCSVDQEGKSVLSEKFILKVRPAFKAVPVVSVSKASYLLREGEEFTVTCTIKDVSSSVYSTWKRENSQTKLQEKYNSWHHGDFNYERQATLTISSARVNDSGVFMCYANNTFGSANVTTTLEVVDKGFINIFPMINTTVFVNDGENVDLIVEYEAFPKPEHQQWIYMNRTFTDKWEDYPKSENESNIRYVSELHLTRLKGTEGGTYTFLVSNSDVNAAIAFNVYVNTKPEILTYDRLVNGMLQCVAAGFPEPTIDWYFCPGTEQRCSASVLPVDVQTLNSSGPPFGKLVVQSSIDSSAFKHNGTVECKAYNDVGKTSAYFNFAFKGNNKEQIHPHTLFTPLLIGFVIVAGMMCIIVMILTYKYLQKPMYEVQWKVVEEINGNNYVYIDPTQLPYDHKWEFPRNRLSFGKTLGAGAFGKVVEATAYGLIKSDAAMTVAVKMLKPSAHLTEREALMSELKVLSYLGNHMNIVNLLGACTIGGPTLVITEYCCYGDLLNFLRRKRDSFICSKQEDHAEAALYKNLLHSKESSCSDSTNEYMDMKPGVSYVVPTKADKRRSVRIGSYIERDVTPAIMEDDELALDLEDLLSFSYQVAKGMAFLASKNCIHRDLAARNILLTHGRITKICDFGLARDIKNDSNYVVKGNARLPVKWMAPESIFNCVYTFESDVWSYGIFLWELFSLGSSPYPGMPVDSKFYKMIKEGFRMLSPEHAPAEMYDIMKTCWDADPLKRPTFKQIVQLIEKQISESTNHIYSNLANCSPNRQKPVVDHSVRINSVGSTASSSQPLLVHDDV
Chain of RIPK2 (O43353 whole entry, species assumed): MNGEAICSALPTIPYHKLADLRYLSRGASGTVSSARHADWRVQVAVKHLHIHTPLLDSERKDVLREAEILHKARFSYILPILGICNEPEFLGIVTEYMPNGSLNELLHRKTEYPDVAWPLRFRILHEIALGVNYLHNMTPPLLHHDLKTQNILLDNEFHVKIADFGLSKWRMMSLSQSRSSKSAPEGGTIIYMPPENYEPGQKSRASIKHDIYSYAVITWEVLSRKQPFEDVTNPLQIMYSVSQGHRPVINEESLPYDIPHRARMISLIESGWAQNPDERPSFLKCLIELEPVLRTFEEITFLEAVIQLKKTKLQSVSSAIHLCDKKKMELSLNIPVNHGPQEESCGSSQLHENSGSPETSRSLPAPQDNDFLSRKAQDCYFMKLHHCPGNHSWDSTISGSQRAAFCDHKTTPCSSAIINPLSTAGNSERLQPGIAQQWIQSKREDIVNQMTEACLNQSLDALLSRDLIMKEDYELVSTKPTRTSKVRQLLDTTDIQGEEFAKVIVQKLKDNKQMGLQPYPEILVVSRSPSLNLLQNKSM
Chain of P38-a (Q16539 whole entry): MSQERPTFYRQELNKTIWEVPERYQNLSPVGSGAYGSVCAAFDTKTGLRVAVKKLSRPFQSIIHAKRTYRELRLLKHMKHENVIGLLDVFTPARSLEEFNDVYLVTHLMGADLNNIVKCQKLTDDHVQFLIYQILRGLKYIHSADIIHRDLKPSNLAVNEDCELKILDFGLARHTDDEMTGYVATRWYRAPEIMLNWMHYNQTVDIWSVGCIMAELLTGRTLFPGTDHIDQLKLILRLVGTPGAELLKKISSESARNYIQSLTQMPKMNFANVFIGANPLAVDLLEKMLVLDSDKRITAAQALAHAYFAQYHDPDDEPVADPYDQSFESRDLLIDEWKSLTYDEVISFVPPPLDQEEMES
Chain of EPH-A4 (P54764 20-986, species assumed): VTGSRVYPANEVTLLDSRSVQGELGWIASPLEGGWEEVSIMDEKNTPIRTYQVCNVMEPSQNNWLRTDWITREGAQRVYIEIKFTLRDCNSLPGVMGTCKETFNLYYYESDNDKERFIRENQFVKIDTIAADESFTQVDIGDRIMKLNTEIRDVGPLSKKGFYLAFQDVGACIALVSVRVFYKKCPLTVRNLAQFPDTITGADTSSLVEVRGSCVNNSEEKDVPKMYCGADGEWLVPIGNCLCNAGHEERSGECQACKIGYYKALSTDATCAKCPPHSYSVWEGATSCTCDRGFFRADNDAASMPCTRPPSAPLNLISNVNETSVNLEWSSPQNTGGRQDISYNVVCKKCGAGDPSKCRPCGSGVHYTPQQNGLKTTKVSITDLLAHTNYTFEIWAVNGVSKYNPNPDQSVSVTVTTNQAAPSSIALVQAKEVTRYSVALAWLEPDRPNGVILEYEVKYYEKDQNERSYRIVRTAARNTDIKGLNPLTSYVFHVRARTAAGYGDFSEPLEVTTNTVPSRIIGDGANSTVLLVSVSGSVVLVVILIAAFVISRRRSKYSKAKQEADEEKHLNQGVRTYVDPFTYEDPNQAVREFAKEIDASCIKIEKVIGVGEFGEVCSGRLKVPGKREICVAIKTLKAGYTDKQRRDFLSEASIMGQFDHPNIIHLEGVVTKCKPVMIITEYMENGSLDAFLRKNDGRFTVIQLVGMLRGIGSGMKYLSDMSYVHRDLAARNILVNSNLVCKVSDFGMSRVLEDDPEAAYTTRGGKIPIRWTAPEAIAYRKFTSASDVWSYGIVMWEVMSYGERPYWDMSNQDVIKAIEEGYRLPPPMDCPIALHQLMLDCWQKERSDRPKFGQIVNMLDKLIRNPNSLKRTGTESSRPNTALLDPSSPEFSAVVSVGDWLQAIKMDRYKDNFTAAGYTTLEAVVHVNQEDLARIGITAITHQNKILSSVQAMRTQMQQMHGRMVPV
Chain of BRK (Q13882 whole entry, species assumed): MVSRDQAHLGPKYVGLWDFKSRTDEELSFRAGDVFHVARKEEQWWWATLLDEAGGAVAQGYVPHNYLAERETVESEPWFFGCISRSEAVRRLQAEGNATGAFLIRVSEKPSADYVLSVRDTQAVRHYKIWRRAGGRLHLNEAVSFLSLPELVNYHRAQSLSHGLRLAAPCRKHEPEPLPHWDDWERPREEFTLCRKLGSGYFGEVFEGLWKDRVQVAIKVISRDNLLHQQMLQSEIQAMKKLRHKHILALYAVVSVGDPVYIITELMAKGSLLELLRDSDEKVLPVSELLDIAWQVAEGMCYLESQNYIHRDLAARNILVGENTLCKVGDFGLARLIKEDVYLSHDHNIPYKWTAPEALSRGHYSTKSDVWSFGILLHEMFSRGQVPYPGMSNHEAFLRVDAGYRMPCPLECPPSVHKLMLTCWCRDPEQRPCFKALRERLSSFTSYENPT
Chain of LOK (O94804 whole entry, species assumed): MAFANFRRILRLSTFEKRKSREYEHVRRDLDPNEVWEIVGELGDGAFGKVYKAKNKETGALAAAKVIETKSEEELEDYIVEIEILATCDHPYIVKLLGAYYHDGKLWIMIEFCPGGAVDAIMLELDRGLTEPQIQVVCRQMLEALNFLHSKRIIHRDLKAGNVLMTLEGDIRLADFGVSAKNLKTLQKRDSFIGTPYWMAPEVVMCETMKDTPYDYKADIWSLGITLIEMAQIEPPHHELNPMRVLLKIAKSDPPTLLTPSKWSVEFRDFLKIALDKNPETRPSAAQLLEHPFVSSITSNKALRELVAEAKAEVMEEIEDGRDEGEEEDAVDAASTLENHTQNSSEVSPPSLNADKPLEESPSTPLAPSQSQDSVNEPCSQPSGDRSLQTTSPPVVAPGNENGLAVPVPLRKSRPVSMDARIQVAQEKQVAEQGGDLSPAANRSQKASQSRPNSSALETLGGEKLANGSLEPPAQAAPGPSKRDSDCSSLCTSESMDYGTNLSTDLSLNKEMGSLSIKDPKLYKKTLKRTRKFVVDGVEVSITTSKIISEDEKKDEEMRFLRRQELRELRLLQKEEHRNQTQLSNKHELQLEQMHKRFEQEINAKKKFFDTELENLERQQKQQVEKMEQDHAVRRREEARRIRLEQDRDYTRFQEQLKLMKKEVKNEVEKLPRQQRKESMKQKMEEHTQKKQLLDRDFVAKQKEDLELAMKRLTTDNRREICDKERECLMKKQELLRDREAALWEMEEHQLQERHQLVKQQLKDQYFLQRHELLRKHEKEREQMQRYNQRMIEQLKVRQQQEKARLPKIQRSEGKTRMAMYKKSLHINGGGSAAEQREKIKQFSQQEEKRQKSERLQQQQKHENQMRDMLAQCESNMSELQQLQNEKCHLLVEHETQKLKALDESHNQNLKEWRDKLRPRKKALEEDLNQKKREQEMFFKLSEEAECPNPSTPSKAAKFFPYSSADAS
Chain of P38-b (Q15759 whole entry, species assumed): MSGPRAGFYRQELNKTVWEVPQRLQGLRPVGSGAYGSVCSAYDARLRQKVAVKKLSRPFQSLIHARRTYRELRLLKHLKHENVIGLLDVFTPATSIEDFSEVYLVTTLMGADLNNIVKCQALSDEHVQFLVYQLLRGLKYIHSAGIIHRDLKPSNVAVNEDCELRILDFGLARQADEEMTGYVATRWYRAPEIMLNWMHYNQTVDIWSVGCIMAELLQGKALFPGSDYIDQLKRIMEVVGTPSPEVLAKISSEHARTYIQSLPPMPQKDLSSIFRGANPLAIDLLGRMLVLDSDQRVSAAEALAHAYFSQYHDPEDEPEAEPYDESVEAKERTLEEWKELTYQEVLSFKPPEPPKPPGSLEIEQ

As to `CNC(=O)c1cc(Oc2ccc(NC(=O)c3nc(COC)oc3-c3ccc(F)cc3)cc2F)ccn1` [Compound 30], the inhibition – broadly, the share of the control response that was lost under treatment – at 5 µM at EPH-A4 is 90 to 94%; at MUSK, 80 to 89%; on P38-b it was 50 to 79%; on TYRO3 it was at least 95%; on TIE2, 80 to 89%; at KIT, 50 to 79%. The inhibition at 5 µM was under 50% on PDGFR-b; at least 95% at BRK; 50 to 79% at PDGFR-a; 90 to 94% at HIPK3; 80 to 89% at RIPK2. For the same compound, the “inhibition of kinase activity, LOK” value at LOK is reported as “A (A=95% or greater at 5 um)”. Moreover, the “inhibition of kinase activity, P38-a” value on P38-a is given as “C (C=80%-89% at 5 um)”.

With `CNC(=O)c1cc(Oc2ccc(NC(=O)c3nc(SC)oc3-c3ccc(F)c(F)c3)cc2)ccn1` [Compound 4], the inhibition at 5 µM was under 50% on EPH-A4; under 50% at MUSK; 50 to 79% at P38-b; 50 to 79% on TYRO3; under 50% on TIE2; 50 to 79% at KIT. For the same compound, the inhibition at 5 µM at PDGFR-b is under 50%; at BRK, 50 to 79%; on PDGFR-a it was under 50%; at HIPK3 it was 50 to 79%; at RIPK2, 80 to 89%. Moreover, the “inhibition of kinase activity, LOK” value at LOK is given as “D (category D for 50-79)”. Also, the “inhibition of kinase activity, P38-a” value at P38-a is “C (C=80%-89% at 5 um)”.

Turning to `CSc1nc(C(=O)Nc2ccc(Oc3ccnc(N)c3Cl)c(F)c2)c(-c2ccc(F)cc2)o1` [Compound 1], the inhibition at 5 µM on EPH-A4 is under 50%; at MUSK, under 50%; at P38-b, under 50%; at TYRO3 it was 50 to 79%; at TIE2, under 50%; at KIT, under 50%. The inhibition at 5 µM is under 50% at PDGFR-b; 50 to 79% at BRK; under 50% at PDGFR-a; under 50% at HIPK3; under 50% on RIPK2. Further, the “inhibition of kinase activity, LOK” value on LOK is reported as “E (category E is less than 50%)”. Moreover, the “inhibition of kinase activity, P38-a” value at P38-a is listed as “D (category D for 50-79)”.

As for `CNC(=O)c1cc(Oc2c(F)cc(NC(=O)c3nc(NC)sc3-c3ccc(F)cc3)cc2F)ccn1` [Compound 19], the inhibition at 5 µM on EPH-A4 is 50 to 79%; on MUSK, under 50%; at P38-b it was under 50%; at TYRO3 it was 50 to 79%; at TIE2 it was 50 to 79%; at KIT, 50 to 79%. In addition, the inhibition at 5 µM at PDGFR-b is under 50%; on BRK, 50 to 79%; on PDGFR-a it was 50 to 79%; on HIPK3, under 50%; on RIPK2, 50 to 79%. The “inhibition of kinase activity, LOK” value on LOK is on record as “D (category D for 50-79)”. On P38-a, the “inhibition of kinase activity, P38-a” value is on record as “D (category D for 50-79)”.

Take `CSc1nc(C(=O)Nc2ccc(Oc3ccnc(C(=O)NC4COC4)c3)c(F)c2)c(-c2ccc(F)cc2)o1` [Compound 31]: the inhibition at 5 µM was under 50% on EPH-A4; under 50% at MUSK; under 50% on P38-b; 50 to 79% on TYRO3; under 50% on TIE2; under 50% on KIT. Besides, the inhibition at 5 µM is under 50% at PDGFR-b; 80 to 89% at BRK; under 50% at PDGFR-a; under 50% at HIPK3; 50 to 79% on RIPK2. Further, on LOK, the “inhibition of kinase activity, LOK” value was “D (category D for 50-79)”. At P38-a, the “inhibition of kinase activity, P38-a” value is “C (C=80%-89% at 5 um)”.

Turning to `CNC(=O)c1cc(Oc2ccc(NC(=O)c3nc(SC)oc3-c3ccc(OC)cc3)cc2)ccn1` [Compound 7], the inhibition at 5 µM at EPH-A4, at MUSK, at P38-b, at TYRO3, on TIE2 and on KIT was under 50% in each case. Besides, the inhibition at 5 µM at PDGFR-b, on BRK, on PDGFR-a, on HIPK3 and at RIPK2 was under 50% each time. Moreover, at LOK, the “inhibition of kinase activity, LOK” value is listed as “C (C=80%-89% at 5 um)”. In addition, the “inhibition of kinase activity, P38-a” value on P38-a is “E (category E is less than 50%)”.

As to `CSc1nc(C(=O)Nc2ccc(Oc3ccnc(C(=O)NC4CCN(C)CC4)c3)c(F)c2)c(-c2ccc(F)cc2)o1` [Compound 42], the inhibition at 5 µM on EPH-A4 is under 50%; on MUSK it was under 50%; at P38-b, 80 to 89%; at TYRO3 it was under 50%; at TIE2, under 50%; on KIT, under 50%. Further, the inhibition at 5 µM at PDGFR-b is under 50%; on BRK, at least 95%; on PDGFR-a, under 50%; on HIPK3, 50 to 79%; on RIPK2, 50 to 79%. Also, at LOK, the “inhibition of kinase activity, LOK” value is recorded as “E (category E is less than 50%)”. In addition, on P38-a, the “inhibition of kinase activity, P38-a” value was “A (A=95% or greater at 5 um)”.

In the case of `COc1nc(C(=O)Nc2ccc(Oc3ccnc(C(=O)NC4COC4)c3)c(F)c2)c(-c2ccc(F)cc2)o1` [Compound 39], the inhibition at 5 µM on EPH-A4 was under 50%; at MUSK, under 50%; on P38-b, under 50%; at TYRO3, 50 to 79%; at TIE2 it was under 50%; on KIT, under 50%. In addition, the inhibition at 5 µM at PDGFR-b was under 50%; on BRK it was 50 to 79%; at PDGFR-a it was under 50%; at HIPK3, under 50%; at RIPK2, 50 to 79%. The “inhibition of kinase activity, LOK” value on LOK was “E (category E is less than 50%)”. On P38-a, the “inhibition of kinase activity, P38-a” value is “D (category D for 50-79)”.
